Series [1] concerns the target T1, electric eel AChE (EC 3.1.1.7) (Electrophorus electricus, UniProt O42275).
T1 construct: purchased Sigma-Aldrich, Germany
Nature of the series: Spectrophotometric assay for AChE inhibitory activity (modified Ellman's method). Format: biochemical. In general terms: DTNB colorimetry detects thiols as they appear.

In series [2] the target is T2, δ opioid receptors (Rattus norvegicus, UniProt P33533).
T2 construct: Membrane fractions were prepared from Sprague-Dawley rat or guinea pig brains; from tissue; host or cells: Sprague-Dawley rat brain (without cerebella) membranes
T2 sequence (P33533 whole entry): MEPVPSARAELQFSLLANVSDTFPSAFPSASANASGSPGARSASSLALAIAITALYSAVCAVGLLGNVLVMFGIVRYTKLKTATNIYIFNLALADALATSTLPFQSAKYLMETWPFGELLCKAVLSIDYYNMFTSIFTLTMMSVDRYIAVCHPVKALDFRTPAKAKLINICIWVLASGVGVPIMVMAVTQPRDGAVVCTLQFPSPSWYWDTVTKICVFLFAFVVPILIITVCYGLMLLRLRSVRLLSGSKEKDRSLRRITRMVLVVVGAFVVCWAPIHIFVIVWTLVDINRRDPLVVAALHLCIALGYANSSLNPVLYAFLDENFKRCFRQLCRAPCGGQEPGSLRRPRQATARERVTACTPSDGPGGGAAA
In words: Opioid receptor binding assay, [3H][Ile5,6]deltorphin II, rat brain membranes. Further details: species or system Sprague-Dawley rat. The procedure:
(§1) Briefly, brains without cerebella were homogenised on ice in 5 volumes of ice-cold 50 mM Tris-HCI buffer (pH 7.4) and diluted in 30 volumes of the same buffer. After centrifugation at 40,000 x g for 20 min at 4°C, the pellets were resuspended in 30 volumes of Tris-HCI buffer and incubated at 37 °C for 30 min (rat brain) or for 10 min (guinea pig brain). The centrifugation step was repeated and the final pellets were resuspended in 5 volumes of 50 mM Tris-HCI buffer (pH 7.4) containing 0.32 M sucrose to give a protein concentration of 4 - 6 mg/ml. Protein concentration was determined by the method of Bradford using bovine serum albumin as standard.
(§2) Binding experiments were performed in 50 mM Tris-HCI buffer (pH 7.4) in a final volume of 1 ml containing 0.3 - 0.5 mg protein and different concentrations of the compounds. […] Guinea pig brain membranes were incubated with [^3H]U69,593 (30 min, 30 °C). Non-specific binding was determined in the presence of 10 µM unlabeled naloxone. […] Inhibition constant (Ki) values were calculated from competition binding curves using GraphPad Prism (San Diego, CA, USA) program. The values are expressed as the mean ± S.E.M of 2-4 independent experiments, each performed in duplicate.
(§3) The morphinan-6-one compounds of the present invention were evaluated in in vitro receptor binding assays for their interaction abilities with µ, δ and k opioid receptors. […] The affinities of the compounds at k opioid receptors were determined by displacement of [^3H]U69,593 using guinea pig brain membranes.

The target of series [3] is T3, k opioid receptors (Cavia porcellus, UniProt P41144).
T3 construct: Membrane fractions were prepared from Sprague-Dawley rat or guinea pig brains; from tissue; host or cells: guinea pig brain (without cerebella) membranes
T3 sequence (P41144 whole entry): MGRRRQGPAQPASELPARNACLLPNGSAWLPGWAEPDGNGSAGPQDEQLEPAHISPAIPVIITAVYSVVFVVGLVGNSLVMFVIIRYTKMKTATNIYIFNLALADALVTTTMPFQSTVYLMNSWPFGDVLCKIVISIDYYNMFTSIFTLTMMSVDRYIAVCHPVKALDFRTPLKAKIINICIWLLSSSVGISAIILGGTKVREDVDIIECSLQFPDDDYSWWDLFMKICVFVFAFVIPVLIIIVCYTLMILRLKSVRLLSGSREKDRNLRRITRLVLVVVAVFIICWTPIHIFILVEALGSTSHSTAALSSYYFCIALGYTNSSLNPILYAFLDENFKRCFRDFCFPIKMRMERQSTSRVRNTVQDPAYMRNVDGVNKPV
In words: Opioid receptor binding assay, [3H]U69,593, guinea pig brain membranes. The procedure: as §1, §2, §3

For series [4], the target named is T4, σ receptors labelled by [^3H](+)-pentazocine (σ1) (Cavia porcellus, UniProt Q60492).
T4 construct: from tissue; host or cells: guinea pig brain membranes
T4 sequence (Q60492 whole entry): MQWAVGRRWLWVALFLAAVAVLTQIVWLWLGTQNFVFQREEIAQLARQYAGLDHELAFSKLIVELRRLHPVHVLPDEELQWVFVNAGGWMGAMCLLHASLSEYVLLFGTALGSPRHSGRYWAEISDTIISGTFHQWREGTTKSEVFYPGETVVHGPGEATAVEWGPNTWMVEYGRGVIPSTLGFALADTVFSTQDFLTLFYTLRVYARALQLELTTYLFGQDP
Nature of the series: Sigma receptor binding assay, [3H](+)-pentazocine. Further details: species or system guinea pig. As for the experimental part:
(§4) Filters were washed three times with 5 ml of ice-cold 10 mM Tris-HCI buffer (pH 8). The bound radioactivity was measured by liquid scintillation counting (Beckman Coulter™ LS6500). […] The values are expressed as the mean ± S.E.M of 2 - 4 independent experiments, each performed in duplicate.

Series [5] deals with σ receptors labelled by [^3H]DTG (σ1 + σ2). In words: Sigma receptor binding assay, [3H]DTG. The settings on record: read-out: IC50 ± SEM [^3H]DTG (σ1 + σ2); guinea pig brain membranes; compounds 1-5 tested up to 10 µM. The procedure:
as §4

For series [6], the system named is extracellular ACh concentration in the nucleus accumbens. As to conditions: for 0AUC120 min (% increase x min) Mean ± SEM: 0 to 120 min; for Increase in ACh release (Peak increase as % of basal output): nucleus accumbens.
Series [7] concerns the target µ opioid receptor (Rattus norvegicus, UniProt P33535). In words: Opioid receptor binding assay, [3H]DAMGO, rat brain membranes. Set-up: Membrane fractions were prepared from Sprague-Dawley rat or guinea pig brains; from tissue; host or cells: Sprague-Dawley rat brain (without cerebella) membranes; species or system Sprague-Dawley rat. As for the experimental part:
as §1, §2, §3

For series [8], the system named is frontal cortex synaptosomes. In words: ACh release from synaptosomes (15 mM K+-evoked [3H]-ACh release, superfusion). Format: cell-based, male Sprague Dawley rats. The settings on record: 0.1 to 100 µM. As for the experimental part: Preparation of synaptosomes: synaptosomes were prepared from brain frontal cortex of male Sprague Dawley rats (4 months old). The frontal cortex was rapidly dissected on ice and homogenized in 40 volumes of 0.32 M sucrose buffered at pH 7.4 with 0.01 M sodium phosphate. The homogenate was centrifuged at 1,000 g for 5 min. The crude synaptosomal pellet was obtained by centrifugation of the supernatant at 15,000 g for 20 min and was resuspended in 5 ml basal medium (125 mM Nacl, 3 mM KCI, 1.2 mM MgS04, 1.2 mM CaCl2, 1.0 mM NaH2PO4, 22 mM NaHCO3 and 10 mM glucose) which had been gassed with 95% O2 - 5% CO2 at 37 °C, pH 7.2 - 7.4.
Superfusion protocol: The synaptosomal suspension was incubated with [^3H]-choline (0.03 µM, 17.5x10^6 Bq/g) for 15 min at 37 °C. Then, the suspension was diluted (1:8) and aliquots were applied on filters in a continuous superfusion system with parallel chambers maintained at 37 °C. The media used for superfusion were basal medium and 15 mM K^+-containing stimulation medium. Both media were supplemented with ACh (1 µM) to facilitate the effectiveness of an allosteric potentiating ligand at the nicotine receptor and with atropine (0.1 µM) to block M2 presynaptic receptors. Synaptosomes were superfused with basal medium for 30 min to reach a constant outflow of [^3H]-ACh. Under these experimental conditions, the radioactivity released consisted largely of newly synthesized [^3H]-ACh. The K^+-stimulated release of [^3H]-ACh was determined in 2 subsequently collected fractions: 6 min basal release (superfusion with basal medium) and 6 min K^+-evoked release (superfusion for 1.5 min with 15 mM K^+-containing medium followed by […] basal medium). The test compounds galantamine, 4 and 2 were present in the superfusion medium concomitantly with 15 mM K^+ (for 1.5 min). Basal release of [^3H]-ACh (continuous superfusion with basal medium) was determined by collection of a 6 min sample followed by four subsequent 2 min samples. Aliquots of samples were mixed with scintillation liquid and the radioactivity quantified with a scintillation counter. The radioactivity bound to the filters was also measured.
Statistical analysis: The amount of [^3H]-ACh released in each sample was calculated as fraction of total synaptosomal tritium at the start of the respective collection period (tritium in the sample / sum of tritium in the respective fractions and in the synaptosomes on the filter). K^+-evoked release was expressed as percentage of basal release rate. Each n=1 represents the mean of an experiment with one synaptosomal preparation in at least 3 superfusion chambers. Statistical significance of group variances was calculated by one way ANOVA followed by Bonferroni's test.

For series [9], the system named is C57BL/6N female mice. Nature of the series: Object recognition task.

SMILES strings stand for the structures. Like-named read-outs stand apart in the source and are kept apart here.

µ opioid receptor, sequence (P33535 whole entry): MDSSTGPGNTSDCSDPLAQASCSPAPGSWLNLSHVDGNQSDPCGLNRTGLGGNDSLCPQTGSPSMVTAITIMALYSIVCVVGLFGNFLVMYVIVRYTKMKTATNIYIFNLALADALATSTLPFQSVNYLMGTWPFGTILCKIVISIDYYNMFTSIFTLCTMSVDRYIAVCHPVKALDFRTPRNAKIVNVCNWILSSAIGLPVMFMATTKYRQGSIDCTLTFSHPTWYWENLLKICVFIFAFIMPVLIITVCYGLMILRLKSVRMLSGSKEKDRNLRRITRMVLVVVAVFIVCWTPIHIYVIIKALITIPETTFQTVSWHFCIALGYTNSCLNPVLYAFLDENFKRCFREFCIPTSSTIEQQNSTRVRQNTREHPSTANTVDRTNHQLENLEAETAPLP
T1 sequence (O42275 24-633): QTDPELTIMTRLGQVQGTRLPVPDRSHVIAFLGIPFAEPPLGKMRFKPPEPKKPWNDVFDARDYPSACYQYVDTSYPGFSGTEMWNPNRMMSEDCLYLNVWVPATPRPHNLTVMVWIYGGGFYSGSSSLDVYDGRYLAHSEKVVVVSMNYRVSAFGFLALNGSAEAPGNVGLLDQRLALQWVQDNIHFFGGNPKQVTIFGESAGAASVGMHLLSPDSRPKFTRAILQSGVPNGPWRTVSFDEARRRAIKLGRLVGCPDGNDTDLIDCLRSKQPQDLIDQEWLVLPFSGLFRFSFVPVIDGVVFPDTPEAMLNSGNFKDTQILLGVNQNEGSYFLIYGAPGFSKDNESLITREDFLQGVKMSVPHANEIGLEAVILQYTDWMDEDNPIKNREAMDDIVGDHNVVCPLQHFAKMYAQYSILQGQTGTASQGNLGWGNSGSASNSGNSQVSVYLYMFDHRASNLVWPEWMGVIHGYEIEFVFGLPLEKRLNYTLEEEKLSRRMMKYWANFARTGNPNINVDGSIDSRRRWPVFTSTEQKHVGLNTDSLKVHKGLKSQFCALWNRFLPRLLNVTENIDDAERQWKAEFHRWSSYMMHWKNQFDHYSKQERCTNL

With `O=CN1CC[C@]23CC(=O)CC[C@H]2[C@H]1CC1=C3C(=O)C=CC1=O` [Compound 2, 1,4-dione-N-formylmorphinan-6-one], the IC50 was 12.7 µM in [1] (96-well microplate, 1% DMSO, read-out: AChE inhibitory activity IC50); more than 10 µM in series [4]; more than 0.01 µM in series [5]. Besides, the Ki in series [2] ([3H][Ile5,6]deltorphin II, rat brain membranes, read-out: Opioid binding affinities Ki δ receptor) was more than 10 µM; in series [2] (no specific binding, read-out: Ki, δ opioid receptor), more than 10 µM; in series [3] ([3H]U69,593, guinea pig brain membranes, read-out: Opioid binding affinities Ki κ receptor), more than 10 µM; in series [3] (no specific binding, read-out: Ki, k opioid receptor), more than 10 µM; in series [7] ([3H]DAMGO, rat brain membranes, read-out: Opioid binding affinities Ki µ receptor), more than 10 µM; in series [7] (no specific binding, read-out: Ki, µ opioid receptor), more than 10 µM. In addition, the “effect on ACh in the superfusate (in words)” value in [6] (0.5 µmol i.c.v.) is “short increase in ACh concentration followed by a decrease”. For the same molecule, in series [6] (1 µmol and above, i.c.v., anaesthetized rats), the “toxicity at higher doses” value is “could not be tested because of toxicity”. In addition, the “0AUC120 min (% increase x min) Mean ± SEM” value in [6] (Dose 0.5 µmol i.c.v.) was 98 ± 27 % increase x min. In series [6] (Dose 0.5 µmol i.c.v.), the “Increase in ACh release (Peak increase as % of basal output)” value came out at 57 ± 14 %.

For `O=CN1CC[C@]23c4c5cccc4OC2C(=O)CC[C@H]3[C@H]1C5` (stereo in doubt) [Compound 3, 4,5-epoxy-N-formylmorphinan-6-one], the “effect on K+-evoked ACh release in frontal-cortex synaptosomes” value in [8] is given as “did not influence ACh release”. Also, the IC50 is 60.3 µM in series [1], more than 10 µM in [4] and more than 10 µM in [5]. Further, the Ki in series [2] is more than 10 µM; in series [2] (read-out: Opioid binding affinities Ki δ receptor, [3H][Ile5,6]deltorphin II, rat brain membranes), more than 10 µM; in [3], more than 10 µM; in series [3] (read-out: Opioid binding affinities Ki κ receptor, [3H]U69,593, guinea pig brain membranes), more than 10 µM; in [7] it was more than 10 µM; in series [7] (read-out: Opioid binding affinities Ki µ receptor, [3H]DAMGO, rat brain membranes) it was more than 10 µM. Also, the entries for the “effect on ACh in the superfusate (in words)” value in [6] (1 µmol i.c.v.) and in series [6] (2 µmol i.c.v.) were “increased ACh release” and “did not influence ACh up to 160 min followed by a decline thereafter”, respectively. Moreover, the entries for the “0AUC120 min (% increase x min) Mean ± SEM” value in [6] (Dose 1 µmol i.c.v.) and in series [6] (Dose 2 µmol i.c.v.) were 410 ± 227 % increase x min and 160 ± 140 % increase x min, respectively. The “Increase in ACh release (Peak increase as % of basal output)” value in [6] (Dose 1 µmol i.c.v.) came out at 123 ± 91 %; in series [6] (Dose 2 µmol i.c.v.) it was 75 ± 73%. Also, in series [9] (normal mice, 0.02 µmol i.c.v.), the “object recognition (memory)” value was “did not influence the object recognition”. The “effect on scopolamine-induced impairment of object recognition” value in series [9] (scopolamine-pretreated mice, dose not given) is “ineffective”.

The term IC50 denotes the concentration needed to halve the response being measured. One may read the Ki as the dissociation constant of the complex between target and ligand, obtained from inhibition or displacement.

The values above are taken from EP2340832A1, “Morphinan-6-one compounds for the treatment or prevention of neurodegenerative diseases” (Universität Innsbruck, priority 2009, dated 2011).
